Results taken from PubChem BioAssay (NCI).
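Growth conditions: 96-well plates. Treatment: test compound, 48 hours, 5 concentrations. Analysis: linear interpolation between bracketing concentrations; unreached endpoints set to highest concentration. TGI: concentration producing complete growth inhibition.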

Legend:
Test in all cases: NCI anticancer screen, dose series, 48 h
[1] = system: 786-0 renal
[2] = system: NCI-H23 lung
[3] = system: OVCAR-3 ovarian
[4] = system: SN12C renal
[5] = system: CCRF-CEM leukemia
[6] = system: A498 renal
[7] = system: K-562 leukemia
[8] = system: OVCAR-5 ovarian
[9] = system: HOP-62 NSCLC
[10] = system: SK-MEL-28 melanoma
[11] = system: SF-295 CNS
[12] = system: MDA-N
[13] = system: LOX IMVI melanoma
[14] = system: NCI-H226 lung
[15] = system: A549 NSCLC
[16] = system: HCT-15 colon
[17] = system: IGROV1 ovarian
[18] = system: KM12 colon
[19] = system: HCT-116 colon
[20] = system: HCC-2998 colon
[21] = system: RXF 393 renal
[22] = system: NCI/ADR-RES ovarian
[23] = system: BT-549 breast
[24] = system: UACC-62 melanoma
[25] = system: ACHN renal
[26] = system: HS 578T breast
[27] = system: SK-OV-3 ovarian
[28] = system: SNB-19 CNS
[29] = system: SR leukemia
[30] = system: M14 melanoma
[31] = system: SW-620 colon
[32] = system: UACC-257 melanoma
[33] = system: COLO 205 colon
[34] = system: MDA-MB-231 breast
[35] = system: SF-268 CNS
[36] = system: RPMI-8226 leukemia
[37] = system: OVCAR-8 ovarian
[38] = system: T-47D breast
[39] = system: DU-145 prostate
[40] = system: HT29 colon
[41] = system: SNB-75 CNS
[42] = system: SK-MEL-2 melanoma
[43] = system: U251 CNS
[44] = system: EKVX NSCLC
[45] = system: MDA-MB-435
[46] = system: TK-10 renal
[47] = system: MOLT-4 leukemia
[48] = system: OVCAR-4 ovarian
[49] = system: PC-3 prostate
[50] = system: CAKI-1 renal
[51] = system: UO-31 renal
[52] = system: SF-539 CNS
[53] = system: NCI-H460 lung
[54] = system: HL-60(TB) leukemia
[55] = system: MCF7 breast
[56] = system: HOP-92 NSCLC
[57] = system: MALME-3M melanoma
[58] = system: NCI-H522 lung
[59] = system: SK-MEL-5 melanoma

Measured: TGI

Cc1cn(CCCCCCOC(=O)NC(CCCN=C(N)N)C(=O)O)c(=O)[nH]c1=O (configuration not stated)
not listed: [57] | [58] | [59]
> 100 µM: all other assays above

O=C(O)c1c(-c2ccccc2)c(=O)[nH]c2ccccc12
not listed: [50] | [52] | [56]
> 100 µM: all other assays above
